Data on 2 molecules can be found in publication PMC10272271, “MAM-2201 acute administration impairs motor, sensorimotor, prepulse inhibition, and memory functions in mice: a comparison with its analogue AM-2201” (Psychopharmacology, 2023).

In assay [1] the target is T1, human CB2 receptors (Homo sapiens, UniProt P34972).
T1 construct: host or cells: CHO cells
Briefly: [3H]-CP-55,940 competition binding, hCB2 CHO membranes. The method, then: CHO cells transfected with human CB1 or CB2 receptors (Perkin Elmer Life and Analytical Sciences, USA) were grown adherently and maintained in Ham’s F12 containing 10% fetal bovine serum, penicillin (100 U/ml), streptomycin (100 µg/ml), and Geneticin (G418, 0.4 mg/ml) at 37 °C in 5% CO2/95% air. To obtain membranes, cells were washed with PBS and scraped off with ice-cold hypotonic buffer (5 mM Tris HCl, 2 mM EDTA, pH 7.4). The cell suspension was homogenized with a Polytron and then centrifuged for 30 min at 40,000 × g. […]
(§1) Competition binding experiments were carried out incubating 0.5 nM [^3H]-CP-55,940 (Perkin Elmer Life and Analytical Sciences, USA) and different concentrations of the tested compounds for 90 or 60 min at 30 °C for CB1 or CB2 receptors, respectively. […] Non-specific binding was determined in the presence of 1 mM WIN 55,212–2 (Vincenzi et al. [2013]). Bound and free radioactivity were separated by filtering the assay mixture through Whatman GF/C glass fiber filters using a Brandel cell harvester (Brandel Instruments, Unterföhring, Germany). The filter-bound radioactivity was counted using a Packard Tri Carb 2810 TR scintillation counter (Perkin Elmer Life and Analytical Sciences, USA).
(§2) The protein concentration was determined according to a Bio-Rad method (500–0006; Bio-Rad Laboratories, Hercules, CA, USA) with bovine serum albumin as a reference standard. […]

A further assay addresses T2, murine CB1 receptors (Mus musculus, UniProt P47746).
T2 construct: membranes from mouse brain and spleen were used, respectively; from tissue
Briefly: [3H]-CP-55,940 competition binding, mouse brain (cortex) membranes. The note with it: for selectivity index (ratio Ki CB2 / Ki CB1): murine CB receptors. As to the method:
(§3) To evaluate the affinity of synthetic cannabinoids for murine CB1 and CB2 receptors, membranes from mouse brain and spleen were used, respectively. Following excision from mice, tissues were suspended in 50 mM Tris HCl, pH 7.4 at 4 °C. The mouse brain and spleen tissues were homogenized with a Polytron and subsequently centrifuged for 10 min at 2000 × g. The resulting supernatants were filtered, centrifuged for 20 min at 40,000 × g and the pellets were used for competition binding experiments (Vincenzi et al. [2013]).
Competition binding experiments were carried out incubating 0.5 nM [^3H]-CP-55,940 (Perkin Elmer Life and Analytical Sciences, USA) and different concentrations of the tested compounds for 90 or 60 min at 30 °C for CB1 or CB2 receptors, respectively. For human cannabinoid receptors, membranes obtained from CHO cells transfected with human CB1 or CB2 receptors (2 µg protein/100 µl) were used. Competition binding experiments at murine cannabinoid receptors were performed with mouse brain membranes (40 µg protein/100 µl) or with mouse spleen membranes (80 µg protein/100 µl) for CB1 receptors or CB2 receptors, respectively. Non-specific binding was determined in the presence of 1 mM WIN 55,212–2 (Vincenzi et al. [2013]). Bound and free radioactivity were separated by filtering the assay mixture through Whatman GF/C glass fiber filters using a Brandel cell harvester (Brandel Instruments, Unterföhring, Germany). The filter-bound radioactivity was counted using a Packard Tri Carb 2810 TR scintillation counter (Perkin Elmer Life and Analytical Sciences, USA).
(§4) The protein concentration was determined according to a Bio-Rad method (500–0006; Bio-Rad Laboratories, Hercules, CA, USA) with bovine serum albumin as a reference standard. Inhibitory binding constants, Ki, were calculated from the IC50 values according to the Cheng and Prusoff equation: Ki = IC50/(1 + [C*]/KD*), where [C*] is the concentration of the radioligand and KD* its dissociation constant. Functional experiments were analyzed by non-linear regression analysis using the equation for a sigmoid concentration–response curve (GraphPad Prism, USA). All the data are expressed as the mean ± SEM of three independent experiments.

A further assay has as its target T3, murine CB2 receptors (Mus musculus, UniProt P47936).
T3 construct: membranes from mouse brain and spleen were used, respectively; from tissue; host or cells: mouse spleen membranes, CD-1 mice
In words: [3H]-CP-55,940 competition binding, mouse spleen membranes. As to the method: as §3, §1, §2

Assay [2] addresses T1, human CB2 receptors. In words: Cyclic AMP assay, hCB2 CHO cells. The class given is cell-based. The note with it: for agonist behaviour (inhibition of forskolin-stimulated cAMP production): CHO cells, human CB2. As to the method:
CHO cells transfected with human CB1 or CB2 receptors were washed with PBS, detached with trypsin, and centrifuged for 10 min at 200 × g. The pellet containing 1 × 10^6 cells/assay was suspended in 0.5 ml of buffer containing150 mM NaCl, 2.7 mM KCl, 0.37 mM NaH2PO4, 1 mM MgSO4, 1 mM CaCl2, 5 mM HEPES, 10 mM MgCl2, and 5 mM glucose, at pH 7.4 and 37 °C. Cells were pre-incubated with 0.5 mM of the phosphodiesterase inhibitor 4-(3-butoxy-4-methoxybenzyl)-2-imidazolidinone (Ro 20–1724;) for 10 min in a shaking bath at 37 °C. The potency of the examined compounds to inhibit adenylate cyclase activity was determined in the presence of forskolin 1-µM stimulation. The reaction was terminated by the addition of cold 6% trichloroacetic acid (TCA) and the final aqueous solution was tested for cyclic AMP levels by a competition protein binding assay (AlphaScreen cAMP Detection Kit, Cat. Number 6760635D, Perkin Elmer Life and Analytical Sciences, USA) following the manufacturer’s instructions; Vincenzi et al. [2013]).
as §4

For a further assay, the target named is CB2 receptors. On the set-up: method as in Howlett et al. [2002]; Hess et al. [2015]. The note with it: ref Howlett et al. [2002]; Hess et al. [2015]; read-out: CB2 receptor Ki; cited from earlier work.

T2 sequence (P47746 whole entry): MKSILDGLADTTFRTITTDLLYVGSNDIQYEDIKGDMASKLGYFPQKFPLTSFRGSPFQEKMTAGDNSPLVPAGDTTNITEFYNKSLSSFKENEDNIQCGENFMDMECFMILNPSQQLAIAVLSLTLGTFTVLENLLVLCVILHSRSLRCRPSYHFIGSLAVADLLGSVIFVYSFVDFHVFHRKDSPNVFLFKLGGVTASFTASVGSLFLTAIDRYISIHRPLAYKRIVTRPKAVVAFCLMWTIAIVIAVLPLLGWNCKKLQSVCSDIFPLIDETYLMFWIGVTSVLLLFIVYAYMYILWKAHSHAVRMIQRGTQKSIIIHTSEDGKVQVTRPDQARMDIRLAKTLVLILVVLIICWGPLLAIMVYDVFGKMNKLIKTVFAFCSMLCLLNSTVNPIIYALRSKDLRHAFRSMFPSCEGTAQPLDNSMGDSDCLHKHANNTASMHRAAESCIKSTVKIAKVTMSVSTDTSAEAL
T1 sequence (P34972 whole entry): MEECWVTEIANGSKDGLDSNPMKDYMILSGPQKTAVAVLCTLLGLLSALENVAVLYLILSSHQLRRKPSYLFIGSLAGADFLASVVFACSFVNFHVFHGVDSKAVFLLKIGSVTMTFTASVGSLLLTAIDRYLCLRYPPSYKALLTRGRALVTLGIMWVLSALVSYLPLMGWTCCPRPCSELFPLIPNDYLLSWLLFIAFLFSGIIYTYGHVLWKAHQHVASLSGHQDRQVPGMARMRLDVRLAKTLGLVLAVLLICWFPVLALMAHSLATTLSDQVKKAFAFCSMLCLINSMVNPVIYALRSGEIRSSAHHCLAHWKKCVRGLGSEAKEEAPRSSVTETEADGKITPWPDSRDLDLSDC
T3 sequence (P47936 whole entry): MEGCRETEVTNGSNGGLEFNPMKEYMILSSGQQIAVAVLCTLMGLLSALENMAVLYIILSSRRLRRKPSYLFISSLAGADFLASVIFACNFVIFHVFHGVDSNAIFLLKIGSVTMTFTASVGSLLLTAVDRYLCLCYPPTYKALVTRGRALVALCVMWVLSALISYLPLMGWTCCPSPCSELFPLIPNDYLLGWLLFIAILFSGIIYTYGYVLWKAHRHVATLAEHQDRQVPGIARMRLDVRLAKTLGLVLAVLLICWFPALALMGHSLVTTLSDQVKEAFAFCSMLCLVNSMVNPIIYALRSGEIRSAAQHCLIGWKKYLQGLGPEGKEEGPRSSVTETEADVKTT

As for `O=C(c1cccc2ccccc12)c1cn(CCCCCF)c2ccccc12` [AM-2201, 1-[(5-Fluoropentyl)-1H-indol-3-yl](1-naphthylenyl) methanone], the inhibitory constant (Ki) (usually a measure of affinity in units of concentration, obtained from inhibition or displacement) was 16.4 ± 1.5 nM on human CB2 receptors [1], 1.96 ± 0.13 nM on murine CB1 receptors, 14.6 ± 1.2 nM at murine CB2 receptors and 2.6 nM at CB2 receptors. For the same molecule, the “selectivity index (ratio Ki CB2 / Ki CB1)” value at murine CB1 receptors worked out at 7.4. Besides, half-maximal inhibition on human CB2 receptors [2] (IC50) was put at 31.8 ± 2.9 nM. Besides, the “agonist behaviour (inhibition of forskolin-stimulated cAMP production)” value on human CB2 receptors [2] was “full agonists”.
Turning to `Cc1ccc(C(=O)c2cn(CCCCCF)c3ccccc23)c2ccccc12` [MAM-2201, 1-[(5-fluoropentyl)-1H-indol-3-yl](4-methyl-1-naphthalenyl) methanone], the Ki on human CB2 receptors [1] is 10.3 ± 2.1 nM; on murine CB1 receptors it was 1.07 ± 0.23 nM; on murine CB2 receptors, 9.6 ± 1.9 nM; on CB2 receptors, 0.582 ± 0.123 nM. Further, the “selectivity index (ratio Ki CB2 / Ki CB1)” value on murine CB1 receptors is recorded as 9.0. In addition, inhibition on human CB2 receptors [2] was half-maximal at 22.4 ± 3.8 nM (IC50). Also, the “agonist behaviour (inhibition of forskolin-stimulated cAMP production)” value on human CB2 receptors [2] is on record as “full agonists”.
